{"source": "paper PMC9518248", "about": "“Inhibition of Toxoplasma gondii by 1,2,4-triazole-based compounds: marked improvement in selectivity relative to the standard therapy pyrimethamine and sulfadiazine” (Journal of Enzyme Inhibition and Medicinal Chemistry, 2022)", "key": {"[1]": {"system": "mouse fibroblasts L929 cells", "assay": "Cell viability assay (MTT, ISO 10993-5)", "format": "cell-based", "conditions": "24 h, highest dilution causing 30% or higher destruction of cells", "experimental": "Culture medium RPMI 1640, without phenol red (Biowest, Nuaille, France) supplemented with 10% FBS, 2 mM […] penicillin, 100 μg/mL streptomycin were used. Briefly, 1 × 10^4/well of L929 cells were placed in 96-well plates and incubated for 24 h at 37 °C and 10% CO2. Afterwards, the old culture medium was replaced with 100 μL of the compound, drug or inhibitor, diluted in culture medium and the cells treated for 24 h. Additionally, cells were treated with 0.03-4.0% concentration of DMSO as the solvent (data not shown). Then, 50 μL of 1 mg/mL of MTT solution in RPMI 1640 without phenol red was added to each well and incubated for 2 h at 37 °C and 10% CO2. Next, cell culture medium was aspirated carefully and 150 μL of DMSO was added to each well, and the plates were gently mixed. Then, 25 μL 0.1 M glycine buffer (pH 10.5) (Sigma-Aldrich) was added. The optical density at 570 nm using a multi-mode microplate reader SpectraMax® i3 (Syngen, Taipei City, Taiwan) was recorded. The results were expressed as a percentage of viability compared to untreated cells. All experiments were performed in triplicate. The reported methyl thiazolyltetrazole (MTT) method was used to study in vitro cytotoxic profile of the s-triazoles 1b-27b to the host cells (L929). Experiments were performed in accordance with the international standard IS0-10993-5:2009. […] The data for acyclic precursors 1a-27a are also included for comparison[39]^,[40]."}, "T. gondii RH-GFP": {"system": "T. gondii RH-GFP", "assay": "Antiparasitic assay: T. gondii RH-GFP proliferation in Hs27 cells", "format": "cell-based, Toxoplasma gondii", "conditions": "for IC50: Toxoplasma gondii, T. gondii RH-GFP in Hs27 cells, 96 h, values above highest tested concentration extrapolated, read-out: IC50Tg; for SI: selectivity index, CC30 (L929)/IC50Tg"}, "[2]": {"system": "human glioblastoma T98G cells", "assay": "Cytotoxicity against glioblastoma cells (MTT)", "format": "cell-based", "conditions": "24 h", "experimental": "(§1) Cytotoxic effect of 20b was evaluated using glioblastoma (T98G) cells obtained from the American Type Culture Collection (Manassas, VA). Cells were cultured in Dulbecco’s Modified Eagle’s Medium (DMEM-high glucose) (Sigma Aldrich, St. Louis, MO), supplemented with 10% heat inactivated FBS, penicillin (100 U/mL), and streptomycin (100 μg/mL) (Sigma Aldrich, St. Louis, MO). Cells were maintained in a humidified atmosphere of 5% CO2 and 95% air at 37 °C. Stock solutions of the investigated compounds (20b and temozolomide) were prepared by dissolving solid substances in a sterile DMSO. T98G glioblastoma cells were seeded into 96-well sterile plates at a density of 1 × 10^5cells/mL. After 24 h of incubation, the medium was removed from each well and then cells were incubated for the next 24 h with different concentrations of the investigated compounds (10, 25, 35, 50, and 100 µg/mL) in the medium containing 2% FBS. Viability of T98G cells was evaluated using MTT assay, whose principle is based on the conversion of 3–(4,5-dimethylthiazol-2-yl)-2,5-diphenyltetrazolium bromide (MTT) into dark-blue formazan crystals. In brief, after 24 h incubation of cells with varying concentrations of the tested compounds, culture medium was removed from the plate. Cells were washed with PBS, and then 100 µL of medium containing 10% MTT solution (5 mg/mL) was added to each well. After 3 h incubation, 100 µL (per well) of 10% SDS buffer solution was added to solubilise formazan crystals. After overnight incubation the absorbance was measured at 570 nm using a microplate reader (Epoch, BioTek Instruments, Winooski, VT). Experiments were repeated three times, and the measurements in each experiment were run in quadruplicate. Viability of the investigated cells was expressed as % of the viability of the untreated cells."}, "[3]": {"assay": "Cytotoxicity against glioblastoma cells (MTT)", "format": "cell-based, human", "conditions": "human, T98G glioblastoma cells, MTT, read-out: Viability of T98G cells (% of control ± SD)", "experimental": "as §1"}, "[4]": {"assay": "Haemolytic activity determination", "format": "cell-based", "conditions": "0.1%, positive control, human RBCs, 37 °C, 30 min; read-out: Haemolysis (%)", "experimental": "Human red blood cells (RBCs) concentrate was obtained from the Regional Blood Donation and Transfusion Centre (Lublin, Poland). RBCs concentrate (5 mL) was washed three times with sterile PBS and centrifuged at 500 g for 3 min. […] The amount of free haemoglobin in supernatants was measured spectrophotometrically at 405 nm. Negative and positive controls were performed by incubating RBCs with sterile PBS and 0.1% Triton-X, respectively. Each experiment was run in triplicate."}}}
{"smiles": "Cc1nc[nH]c1-c1n[nH]c(=S)n1-c1ccc(I)cc1", "note": "[12b, 4–(4-iodophenyl)-5–(4-methylimidazol-5-yl)-1,2,4-triazole-3-thione]", "values": [{"measurement": "CC30", "setting": "[1]", "value": 483.06, "unit": "mg/L"}, {"measurement": "IC50", "setting": "T. gondii RH-GFP", "value": 99.1, "unit": "mg/L"}, {"measurement": "SI", "setting": "T. gondii RH-GFP", "value": 4.88}, {"measurement": "melting point", "value": 290, "unit": "°C"}]}
{"smiles": "Cc1ccccc1-n1c(-c2[nH]cnc2C)n[nH]c1=S", "note": "[14b, 5–(4-methylimidazol-5-yl)-4–(2-methylphenyl)-1,2,4-triazole-3-thione]", "values": [{"measurement": "CC30", "setting": "[1]", "value": 2414.35, "unit": "mg/L"}, {"measurement": "IC50", "setting": "T. gondii RH-GFP", "value": 77.3, "unit": "mg/L"}, {"measurement": "SI", "setting": "T. gondii RH-GFP", "value": 31.23}, {"measurement": "melting point", "value": 249.9, "unit": "°C"}]}
{"smiles": "Cc1cccc(-n2c(-c3[nH]cnc3C)n[nH]c2=S)c1", "note": "[15b, 5–(4-methylimidazol-5-yl)-4–(3-methylphenyl)-1,2,4-triazole-3-thione]", "values": [{"measurement": "CC30", "setting": "[1]", "value": 579.43, "unit": "mg/L"}, {"measurement": "IC50", "setting": "T. gondii RH-GFP", "value": 79.1, "unit": "mg/L"}, {"measurement": "SI", "setting": "T. gondii RH-GFP", "value": 7.33}, {"measurement": "melting point", "value": 248.7, "unit": "°C"}]}
{"smiles": "Cc1ccc(-n2c(-c3[nH]cnc3C)n[nH]c2=S)cc1Cl", "note": "[17b, 4–(3-chloro-4-methylphenyl)-5–(4-methylimidazol-5-yl)-1,2,4-triazole-3-thione]", "values": [{"measurement": "CC30", "setting": "[1]", "value": 414.57, "unit": "mg/L"}, {"measurement": "IC50", "setting": "T. gondii RH-GFP", "value": 175, "unit": "mg/L"}, {"measurement": "SI", "setting": "T. gondii RH-GFP", "value": 2.37}, {"measurement": "melting point", "value": 264.1, "unit": "°C"}]}
{"smiles": "COc1ccc(-n2c(-c3[nH]cnc3C)n[nH]c2=S)cc1OC", "note": "[21b, 4–(3,4-dimethoxyphenyl)-5–(4-methylimidazol-5-yl)-1,2,4-triazole-3-thione]", "values": [{"measurement": "CC30", "setting": "[1]", "value": 318.42, "unit": "mg/L"}, {"measurement": "IC50", "setting": "T. gondii RH-GFP", "value": 139, "unit": "mg/L"}, {"measurement": "SI", "setting": "T. gondii RH-GFP", "value": 2.29}, {"measurement": "melting point", "value": 213.4, "unit": "°C"}]}
{"smiles": "CCOc1ccc(-n2c(-c3[nH]cnc3C)n[nH]c2=S)cc1", "note": "[22b, 4–(4-ethoxyphenyl)-5–(4-methylimidazol-5-yl)-1,2,4-triazole-3-thione]", "values": [{"measurement": "CC30", "setting": "[1]", "value": 1881.91, "unit": "mg/L"}, {"measurement": "IC50", "setting": "T. gondii RH-GFP", "value": 64.2, "unit": "mg/L"}, {"measurement": "SI", "setting": "T. gondii RH-GFP", "value": 29.33}, {"measurement": "melting point", "value": 239.9, "unit": "°C"}]}
{"smiles": "Cc1nc[nH]c1-c1n[nH]c(=S)n1-c1c(C(C)C)cccc1C(C)C", "note": "[24b, 4–(2,6-diisopropylphenyl)-5–(4-methylimidazol-5-yl)-1,2,4-triazole-3-thione]", "values": [{"measurement": "CC30", "setting": "[1]", "value": 144.94, "unit": "mg/L"}, {"measurement": "IC50", "setting": "T. gondii RH-GFP", "value": 61.7, "unit": "mg/L"}, {"measurement": "SI", "setting": "T. gondii RH-GFP", "value": 2.35}, {"measurement": "melting point", "value": 251.9, "unit": "°C"}]}
{"smiles": "Cc1nc[nH]c1-c1n[nH]c(=S)n1-c1ccc(N(C)C)cc1", "note": "[25b, 5–(4-methylimidazol-5-yl)-4–(4-dimethyloaminophenyl)-1,2,4-triazole-3-thione]", "values": [{"measurement": "CC30", "setting": "[1]", "value": 755.61, "unit": "mg/L"}, {"measurement": "IC50", "setting": "T. gondii RH-GFP", "value": 285, "unit": "mg/L"}, {"measurement": "SI", "setting": "T. gondii RH-GFP", "value": 2.65}, {"measurement": "melting point", "value": 288.2, "unit": "°C"}]}
{"smiles": "CCN(CC)c1ccc(-n2c(-c3[nH]cnc3C)n[nH]c2=S)cc1", "note": "[26b, 4–(4-diethylaminophenyl)-5–(4-methylimidazol-5-yl)-1,2,4-triazole-3-thione]", "values": [{"measurement": "CC30", "setting": "[1]", "value": 230.94, "unit": "mg/L"}, {"measurement": "IC50", "setting": "T. gondii RH-GFP", "value": 157, "unit": "mg/L"}, {"measurement": "SI", "setting": "T. gondii RH-GFP", "value": 1.47}, {"measurement": "melting point", "value": 147, "unit": "°C"}]}
{"smiles": "Cc1nc[nH]c1-c1n[nH]c(=S)n1Cc1ccccc1", "note": "[27b, 4-benzyl-5–(4-methylimidazol-5-yl)-1,2,4-triazole-3-thione]", "values": [{"measurement": "CC30", "setting": "[1]", "value": 425.30, "unit": "mg/L"}, {"measurement": "IC50", "setting": "T. gondii RH-GFP", "value": 148, "unit": "mg/L"}, {"measurement": "SI", "setting": "T. gondii RH-GFP", "value": 2.87}, {"measurement": "melting point", "value": 229.5, "unit": "°C"}]}
{"smiles": "Cn1nnc2c(C(N)=O)ncn2c1=O", "note": "[Temozolomide, reference compound]", "values": [{"measurement": "reduction of T98G cell viability", "setting": "[2]; 10 µg/mL", "value": "~33", "unit": "%"}, {"measurement": "reduction of T98G cell viability", "setting": "[2]; 100 µg/mL", "value": "~46", "unit": "%"}, {"measurement": "viability at 24 h, 10 µg/mL", "setting": "[3]; 10 µg/mL", "value": "66.6 ± 1.07", "unit": "%"}, {"measurement": "viability at 24 h, 25 µg/mL", "setting": "[3]; 25 µg/mL", "value": "61.11 ± 0.45", "unit": "%"}, {"measurement": "viability at 24 h, 35 µg/mL", "setting": "[3]; 35 µg/mL", "value": "57.3 ± 2.25", "unit": "%"}, {"measurement": "viability at 24 h, 50 µg/mL", "setting": "[3]; 50 µg/mL", "value": "55.3 ± 1.81", "unit": "%"}, {"measurement": "viability at 24 h, 100 µg/mL", "setting": "[3]; 100 µg/mL", "value": "53.95 ± 0.33", "unit": "%"}]}
{"smiles": "CC(C)(C)CC(C)(C)c1ccc(OCCO)cc1", "note": "[Triton-X, reference compound]", "values": [{"measurement": "hemolysis at 30 min, 0.1 %", "setting": "[4]", "value": "99.78 ± 0.34", "unit": "%"}]}
